Patent US20230085307A1, “PYRIDAZINONE COMPOUND AND HERBICIDE” (NISSAN CHEMICAL CORPORATION, priority 2019, published 2023)

Tests used:
[1] = tested on: lambsquarters; assay: Test Example 5: herbicidal effect by foliage application, plastic box (Table 20, symbol O); type: in vivo, lambsquarters (Chenopodium album); conditions: foliage application, 320 g/ha, evaluated three weeks after application
In short: (§1)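 Post-emergence foliar test in sterilized diluvial soil. Compound applied as water-diluted emulsion at a predetermined rate to 14-day-old plants; evaluation at three weeks.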

[2] = tested on: velvetleaf; assay: Test Example 4: herbicidal effect by soil treatment (Table 19, symbol M); type: in vivo, velvetleaf (Abutilon theophrasti); conditions: 320 g/ha
In short: (§2)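 Emulsion of test compound, water-diluted to predetermined amount, sprayed on soil after sowing (seed depth ~1.5 cm, sterilized diluvial soil). Greenhouse, 25–30° C. Effect graded at three weeks post-spray.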

[3] = tested on: lambsquarters; assay: Test Example 4: herbicidal effect by soil treatment (Table 19, symbol O); type: in vivo, lambsquarters (Chenopodium album); conditions: 320 g/ha
In short: as §2

[4] = tested on: wild oat; assay: Test Example 5: herbicidal effect by foliage application, plastic box (Table 20, symbol I); type: in vivo, wild oat (Avena fatua); conditions: foliage application, 320 g/ha, evaluated three weeks after application
In short: as §1

[5] = tested on: barnyard grass; assay: Test Example 3: herbicidal effect by foliage application, Wagner pot (Table 18, symbol H); type: in vivo, barnyard grass (Echinochloa crus-galli); conditions: 320 g/ha
In short: (§3)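 Plants were sown in alluvial soil held under 0.1–0.5 cm standing water and grown 14 days in a greenhouse at 25–30 °C. An emulsifiable formulation, water-diluted to the set dose, was then sprayed onto the foliage, and effects were scored three weeks later using previously defined criteria.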

[6] = tested on: blackgrass; assay: Test Example 4: herbicidal effect by soil treatment (Table 19, symbol J); type: in vivo, blackgrass (Alopecurus myosuroides); conditions: 320 g/ha
In short: as §2

[7] = tested on: southern crabgrass; assay: Test Example 4: herbicidal effect by soil treatment (Table 19, symbol F); type: in vivo, southern crabgrass (Digitaria ciliaris); conditions: 320 g/ha
In short: as §2

[8] = tested on: Italian ryegrass; assay: Test Example 5: herbicidal effect by foliage application, plastic box (Table 20, symbol K); type: in vivo, Italian ryegrass (Lolium multiflorum); conditions: foliage application, 320 g/ha, evaluated three weeks after application
In short: as §1

[9] = tested on: chickweed; assay: Test Example 4: herbicidal effect by soil treatment (Table 19, symbol P); type: in vivo, common chickweed (Stellaria media); conditions: 320 g/ha
In short: as §2

[10] = tested on: blackgrass; assay: Test Example 5: herbicidal effect by foliage application, plastic box (Table 20, symbol J); type: in vivo, blackgrass (Alopecurus myosuroides); conditions: foliage application, 320 g/ha, evaluated three weeks after application
In short: as §1

[11] = tested on: redroot pigweed; assay: Test Example 5: herbicidal effect by foliage application, plastic box (Table 20, symbol N); type: in vivo, redroot pigweed (Amaranthus retroflexus); conditions: foliage application, 320 g/ha, evaluated three weeks after application
In short: as §1

[12] = tested on: windgrass; assay: Test Example 5: herbicidal effect by foliage application, plastic box (Table 20, symbol L); type: in vivo, windgrass (Apera spica-venti); conditions: foliage application, 320 g/ha, evaluated three weeks after application
In short: as §1

[13] = tested on: southern crabgrass; assay: Test Example 5: herbicidal effect by foliage application, plastic box (Table 20, symbol F); type: in vivo, southern crabgrass (Digitaria ciliaris); conditions: foliage application, 320 g/ha, evaluated three weeks after application
In short: as §1

[14] = tested on: Italian ryegrass; assay: Test Example 4: herbicidal effect by soil treatment (Table 19, symbol K); type: in vivo, Italian ryegrass (Lolium multiflorum); conditions: 320 g/ha
In short: as §2

[15] = tested on: green foxtail; assay: Test Example 4: herbicidal effect by soil treatment (Table 19, symbol G); type: in vivo, green foxtail (Setaria viridis); conditions: 320 g/ha
In short: as §2

[16] = tested on: wild oat; assay: Test Example 4: herbicidal effect by soil treatment (Table 19, symbol I); type: in vivo, wild oat (Avena fatua); conditions: 320 g/ha
In short: as §2

[17] = tested on: barnyard grass; assay: Test Example 5: herbicidal effect by foliage application, plastic box (Table 20, symbol H); type: in vivo, barnyard grass (Echinochloa crus-galli); conditions: foliage application, 320 g/ha, evaluated three weeks after application
In short: as §1

[18] = tested on: redroot pigweed; assay: Test Example 4: herbicidal effect by soil treatment (Table 19, symbol N); type: in vivo, redroot pigweed (Amaranthus retroflexus); conditions: 320 g/ha
In short: as §2

[19] = tested on: rice flat sedge; assay: Test Example 3: herbicidal effect by foliage application, Wagner pot (Table 18, symbol E); type: in vivo, rice flat sedge (Cyperus iria); conditions: 320 g/ha
In short: as §3

[20] = tested on: persian speedwell; assay: Test Example 4: herbicidal effect by soil treatment (Table 19, symbol R); type: in vivo, Persian speedwell (Veronica persica); conditions: 320 g/ha
In short: as §2

[21] = tested on: chickweed; assay: Test Example 5: herbicidal effect by foliage application, plastic box (Table 20, symbol P); type: in vivo, common chickweed (Stellaria media); conditions: foliage application, 320 g/ha, evaluated three weeks after application
In short: as §1

[22] = tested on: windgrass; assay: Test Example 4: herbicidal effect by soil treatment (Table 19, symbol L); type: in vivo, windgrass (Apera spica-venti); conditions: 320 g/ha
In short: as §2

[23] = tested on: barnyard grass; assay: Test Example 4: herbicidal effect by soil treatment (Table 19, symbol H); type: in vivo, barnyard grass (Echinochloa crus-galli); conditions: 320 g/ha
In short: as §2

[24] = tested on: Chinese sprangletop; assay: Test Example 3: herbicidal effect by foliage application, Wagner pot (Table 18, symbol D); type: in vivo, chinese sprangletop (Leptochloa chinensis); conditions: 320 g/ha
In short: as §3

[25] = tested on: velvetleaf; assay: Test Example 5: herbicidal effect by foliage application, plastic box (Table 20, symbol M); type: in vivo, velvetleaf (Abutilon theophrasti); conditions: foliage application, 320 g/ha, evaluated three weeks after application
In short: as §1

[26] = tested on: persian speedwell; assay: Test Example 5: herbicidal effect by foliage application, plastic box (Table 20, symbol R); type: in vivo, Persian speedwell (Veronica persica); conditions: foliage application, 320 g/ha, evaluated three weeks after application
In short: as §1

[27] = tested on: green foxtail; assay: Test Example 5: herbicidal effect by foliage application, plastic box (Table 20, symbol G); type: in vivo, green foxtail (Setaria viridis); conditions: foliage application, 320 g/ha, evaluated three weeks after application
In short: as §1

Compound: COc1ccc(-c2sc3ccc(F)cc3c2-c2c(O)c(C)nn(C)c2=O)cc1F [2-086]
- herbicidal effect on O: lambsquarters [1]: 4 (Herbicidal rate of 70% or more and less than 90%)
- herbicidal effect rating, M: velvetleaf [2]: 4 (Herbicidal rate of 70% or more and less than 90%)
- herbicidal effect rating, O: lambsquarters [3]: 5 (Herbicidal rate of 90% or more (almost completely withered))
- herbicidal effect on I: wild oat [4]: 0 (Herbicidal rate of 5% or less (almost no effect))
- herbicidal effect on H (barnyard grass), rating 0-5 [5]: 3 (Herbicidal rate of 40% or more and less than 70%)
- herbicidal effect rating, J: blackgrass [6]: 0 (Herbicidal rate of 5% or less (almost no effect))
- herbicidal effect rating, F: southern crabgrass [7]: 1 (Herbicidal rate of 5% or more and less than 20%)
- herbicidal effect on K: Italian ryegrass [8]: 0 (Herbicidal rate of 5% or less (almost no effect))
- herbicidal effect rating, P: chickweed [9]: 0 (Herbicidal rate of 5% or less (almost no effect))
- herbicidal effect on J: blackgrass [10]: 0 (Herbicidal rate of 5% or less (almost no effect))
- herbicidal effect on N: redroot pigweed [11]: 4 (Herbicidal rate of 70% or more and less than 90%)
- herbicidal effect on L: windgrass [12]: 0 (Herbicidal rate of 5% or less (almost no effect))
- herbicidal effect on F: southern crabgrass [13]: 0 (Herbicidal rate of 5% or less (almost no effect))
- herbicidal effect rating, K: Italian ryegrass [14]: 0 (Herbicidal rate of 5% or less (almost no effect))
- herbicidal effect rating, G: green foxtail [15]: 3 (Herbicidal rate of 40% or more and less than 70%)
- herbicidal effect rating, I: wild oat [16]: 0 (Herbicidal rate of 5% or less (almost no effect))
- herbicidal effect on H: barnyard grass [17]: 3 (Herbicidal rate of 40% or more and less than 70%)
- herbicidal effect rating, N: redroot pigweed [18]: 4 (Herbicidal rate of 70% or more and less than 90%)
- herbicidal effect on E (rice flat sedge), rating 0-5 [19]: 5 (Herbicidal rate of 90% or more (almost completely withered))
- herbicidal effect rating, R: persian speedwell [20]: 5 (Herbicidal rate of 90% or more (almost completely withered))
- herbicidal effect on P: chickweed [21]: 5 (Herbicidal rate of 90% or more (almost completely withered))
- herbicidal effect rating, L: windgrass [22]: 0 (Herbicidal rate of 5% or less (almost no effect))
- herbicidal effect rating, H: barnyard grass [23]: 3 (Herbicidal rate of 40% or more and less than 70%)
- herbicidal effect on D (Chinese sprangletop), rating 0-5 [24]: 3 (Herbicidal rate of 40% or more and less than 70%)
- herbicidal effect on M: velvetleaf [25]: 5 (Herbicidal rate of 90% or more (almost completely withered))
- herbicidal effect on R: persian speedwell [26]: 5 (Herbicidal rate of 90% or more (almost completely withered))
- herbicidal effect on G: green foxtail [27]: 3 (Herbicidal rate of 40% or more and less than 70%)
